{"source": "patent US4036834A", "about": "“Derivatives of 7-(α-hydroxy-substituted pyridyl carboxamido-α p h Δ^3 -cephem-4-carboxylic acid” (Yamanouchi Pharmaceutical Co., Ltd., priority 1974, dated 1977)", "key": {"[1]": {"tested_on": "escherichia coli Kauffman 0-1", "assay": "MIC against escherichia coli Kauffman 0-1", "format": "cell-based", "source_text": "(§1) Now, for illustrating the excellent pharmacological effects of the compounds of this invention, the values of MIC (γ/ml) of the compounds against various bacteria are shown in the following table, the compounds of this invention are shown by example numbers.\n7: escherichia coli Kauffman 0-1"}, "[2]": {"assay": "water solubility, naked-eye observation of solutions", "format": "physicochemical", "source_text": "Then, the experimental results showing the excellent water solubility of the compounds of this invention are illustrated in the following table, the results being the observation results by the naked eyes of the solutions thereof in each concentration as shown in the table."}, "[3]": {"tested_on": "staphylococcus Shimanishi", "assay": "MIC against staphylococcus Shimanishi", "format": "cell-based", "source_text": "as §1\n17. staphylococcus Shimanishi"}, "[4]": {"tested_on": "Shigella flexnori 2a 1675", "assay": "MIC against Shigella flexnori 2a 1675", "format": "cell-based", "conditions": "2A1675", "source_text": "as §1"}, "[5]": {"tested_on": "pseudomonas aeruginosa ATCC 8689", "assay": "MIC against pseudomonas aeruginosa ATCC 8689", "format": "cell-based", "conditions": "Pseudomonas aeruginosa, ATCC8689", "source_text": "as §1\n4: pseudomonas aeruginosa ATCC 8689"}, "Proteus vulgaris OXK US": {"tested_on": "Proteus vulgaris OXK US", "assay": "MIC against Proteus vulgaris OXK US", "format": "cell-based", "conditions": "Proteus vulgaris OXK US; read-out: MIC", "source_text": "as §1\n1: Proteus vulgaris OXK US"}, "[6]": {"tested_on": "proteus mirabilis IFM OM-19", "assay": "MIC against proteus mirabilis IFM OM-19", "format": "cell-based", "conditions": "IFMOM19", "source_text": "as §1\n3. proteus mirabilis IFM OM-19"}, "[7]": {"tested_on": "pseudomonas aeruginosa 99 (Gentamycin resistant)", "assay": "MIC against pseudomonas aeruginosa 99 (Gentamycin resistant)", "format": "cell-based", "conditions": "Pseudomonas aeruginosa", "source_text": "as §1\n5: pseudomonas aeruginosa 99 (Gentamycin resistant)"}, "salmonella enteritidis": {"tested_on": "salmonella enteritidis", "assay": "MIC against salmonella enteritidis", "format": "cell-based", "conditions": "Salmonella enterica; salmonella enteritidis; read-out: MIC", "source_text": "as §1\n10: salmonella enteritidis"}, "[8]": {"tested_on": "Bacillus subtilis ATCC 6633", "assay": "MIC against Bacillus subtilis ATCC 6633", "format": "cell-based", "conditions": "ATCC6633; Bacillus subtilis ATCC 6633; read-out: MIC", "source_text": "as §1\n14: Bacillus subtilis ATCC 6633"}, "proteus vulgaris OX 19US": {"tested_on": "proteus vulgaris OX 19US", "assay": "MIC against proteus vulgaris OX 19US", "format": "cell-based", "conditions": "OX19US; proteus vulgaris OX 19US; read-out: MIC", "source_text": "as §1\n2. proteus vulgaris OX 19US"}, "[9]": {"tested_on": "Klebsiella pneumoniae ATCC 10031", "assay": "MIC against Klebsiella pneumoniae ATCC 10031", "format": "cell-based", "conditions": "ATCC10031", "source_text": "as §1\n8: Klebsiella pneumoniae ATCC 10031"}, "[10]": {"tested_on": "staphylococcus aureus 209P", "assay": "MIC against staphylococcus aureus 209P", "format": "cell-based", "conditions": "read-out: MIC", "source_text": "as §1\n16: staphylococcus aureus 209P"}, "[11]": {"tested_on": "Pseudomonas ovalis IAM 1002", "assay": "MIC against Pseudomonas ovalis IAM 1002", "format": "cell-based", "conditions": "Pseudomonas putida, IAM1002", "source_text": "as §1\n6: Pseudomonas ovalis IAM 1002"}, "Staphylococcus Onuma": {"tested_on": "Staphylococcus Onuma", "assay": "MIC against Staphylococcus Onuma", "format": "cell-based", "source_text": "as §1"}, "Shigella sonnei II 37148": {"tested_on": "Shigella sonnei II 37148", "assay": "MIC against Shigella sonnei II 37148", "format": "cell-based", "conditions": "II37148", "source_text": "as §1"}, "salmonella typhi H901W": {"tested_on": "salmonella typhi H901W", "assay": "microbe, parasite or virus in culture", "format": "cell-based", "conditions": "Salmonella enterica"}, "[12]": {"tested_on": "micrococcus flavus ATCC 10240", "assay": "MIC against micrococcus flavus ATCC 10240", "format": "cell-based", "conditions": "ATCC10240; micrococcus flavus ATCC 10240; read-out: MIC", "source_text": "as §1"}, "[13]": {"tested_on": "bacillus megatherium 10778", "assay": "MIC against bacillus megatherium 10778", "format": "cell-based", "conditions": "bacillus megatherium 10778; read-out: MIC", "source_text": "as §1"}}, "note": "Like-named read-outs stand apart in the source and are kept apart here.", "data": [{"smiles": "Cc1nc(S)cc(SCC2=C(C(=O)O)N3C(=O)[C@@H](NC(=O)[C@H](NC(=O)c4cnccc4O)c4ccccc4)[C@H]3SC2)n1", "note": "[Example 2, 7-[D-α-(4-hydroxynicotinoylamido)-α-phenylacetamido]-3-(2-methyl-4-mercaptopyrimidin-6-yl)thiomethyl-Δ ^3-cephem-4-carboxylicacid]", "values": [{"measurement": "MIC", "setting": "[1]; escherichia coli Kauffman 0-1, read-out: MIC", "result": 6.25, "unit": "mg/L"}, {"measurement": "water solubility (appearance of solution by the naked eyes)", "setting": "[2]; concentration 1%", "result": "clear"}, {"measurement": "water solubility (appearance of solution by the naked eyes)", "setting": "[2]; concentration 5%", "result": "clear"}, {"measurement": "water solubility (appearance of solution by the naked eyes)", "setting": "[2]; concentration 10%", "result": "clear"}, {"measurement": "water solubility (appearance of solution by the naked eyes)", "setting": "[2]; concentration 20%", "result": "slightly turbid"}, {"measurement": "MIC", "setting": "[3]; staphylococcus Shimanishi, read-out: MIC", "result": 3.13, "unit": "mg/L"}, {"measurement": "MIC", "setting": "[4]", "result": 12.5, "unit": "mg/L"}, {"measurement": "MIC", "setting": "[5]", "result": 12.5, "unit": "mg/L"}, {"measurement": "MIC", "setting": "Proteus vulgaris OXK US", "result": 0.19, "unit": "mg/L"}, {"measurement": "MIC", "setting": "[6]", "result": 0.39, "unit": "mg/L"}, {"measurement": "MIC", "setting": "[7]", "result": 12.5, "unit": "mg/L"}, {"measurement": "MIC", "setting": "salmonella enteritidis", "result": 0.19, "unit": "mg/L"}, {"measurement": "MIC", "setting": "[8]", "result": 0.39, "unit": "mg/L"}, {"measurement": "MIC", "setting": "proteus vulgaris OX 19US", "result": 1.56, "unit": "mg/L"}, {"measurement": "MIC", "setting": "[9]; Klebsiella pneumoniae ATCC 10031, read-out: MIC", "result": 3.13, "unit": "mg/L"}, {"measurement": "MIC", "setting": "[10]", "result": 0.39, "unit": "mg/L"}, {"measurement": "MIC", "setting": "[11]", "result": 12.5, "unit": "mg/L"}, {"measurement": "MIC", "setting": "Staphylococcus Onuma; Staphylococcus Onuma, read-out: MIC", "result": 6.25, "unit": "mg/L"}, {"measurement": "MIC", "setting": "Shigella sonnei II 37148", "result": 12.5, "unit": "mg/L"}, {"measurement": "MIC", "setting": "salmonella typhi H901W", "result": 0.19, "unit": "mg/L"}, {"measurement": "MIC", "setting": "[12]", "result": 3.13, "unit": "mg/L"}, {"measurement": "MIC", "setting": "[13]", "result": 0.19, "unit": "mg/L"}]}, {"smiles": "Cc1c(S)sc(SCC2=C(C(=O)O)N3C(=O)[C@@H](NC(=O)[C@H](NC(=O)c4cnccc4O)c4ccccc4)[C@H]3SC2)c(C)c1=O", "note": "[Example 3, 7-[D-α-(4-hydroxynicotinoylamido)-α-phenylacetamido]-3-(3,5-dimethyl-6-mercapto-4-oxo-4H-thiopyran-2-yl)thiomethyl-Δ^3-cephem-4-carboxylic acid]", "values": [{"measurement": "MIC", "setting": "[1]; Escherichia coli", "result": 12.5, "unit": "mg/L"}, {"measurement": "water solubility (appearance of solution by the naked eyes)", "setting": "[2]; concentration 1%", "result": "clear"}, {"measurement": "water solubility (appearance of solution by the naked eyes)", "setting": "[2]; concentration 5%", "result": "clear"}, {"measurement": "water solubility (appearance of solution by the naked eyes)", "setting": "[2]; concentration 10%", "result": "clear"}, {"measurement": "water solubility (appearance of solution by the naked eyes)", "setting": "[2]; concentration 20%", "result": "clear"}, {"measurement": "MIC", "setting": "[3]; Staphylococcus", "result": 6.25, "unit": "mg/L"}, {"measurement": "MIC", "setting": "[4]", "result": 6.25, "unit": "mg/L"}, {"measurement": "MIC", "setting": "[5]", "result": 12.5, "unit": "mg/L"}, {"measurement": "MIC", "setting": "Proteus vulgaris OXK US", "result": 0.19, "unit": "mg/L"}, {"measurement": "MIC", "setting": "[6]", "result": 0.78, "unit": "mg/L"}, {"measurement": "MIC", "setting": "[7]", "result": 12.5, "unit": "mg/L"}, {"measurement": "MIC", "setting": "salmonella enteritidis", "result": 0.78, "unit": "mg/L"}, {"measurement": "MIC", "setting": "[8]", "result": 0.78, "unit": "mg/L"}, {"measurement": "MIC", "setting": "proteus vulgaris OX 19US", "result": 0.39, "unit": "mg/L"}, {"measurement": "MIC", "setting": "[9]; Klebsiella pneumoniae", "result": 12.5, "unit": "mg/L"}, {"measurement": "MIC", "setting": "[10]", "result": 1.56, "unit": "mg/L"}, {"measurement": "MIC", "setting": "[11]", "result": 6.25, "unit": "mg/L"}, {"measurement": "MIC", "setting": "Staphylococcus Onuma; Staphylococcus", "result": 12.5, "unit": "mg/L"}, {"measurement": "MIC", "setting": "Shigella sonnei II 37148", "result": 12.5, "unit": "mg/L"}, {"measurement": "MIC", "setting": "salmonella typhi H901W", "result": 3.13, "unit": "mg/L"}, {"measurement": "MIC", "setting": "[12]", "result": 1.56, "unit": "mg/L"}, {"measurement": "MIC", "setting": "[13]", "result": 0.19, "unit": "mg/L"}]}]}
